Measurements taken from the supplement of paper PMC11061612.

Key:
Assay in all cases: Bliss excess, mean over the matrix (fraction); higher = more synergy
[1] = tested on: ASH-3 (Thyroid Gland Carcinoma)
How it was run: (§1)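 Cell lines grown in DMEM/F12 or RPMI with 10% FBS were plated in 1536-well plates and held 24 hours at 37°C, 5% CO2 before 72 hours of exposure to two-drug dose matrices, with DMSO typically at 0.2%. CellTiter-Glo 2.0 luminescence gave viability, which was converted to inhibition. Vehicle wells were set to 0 and blank wells to 1. Combination Emax is the second-highest inhibition in the matrix, and Bliss excess is the observed combination effect minus the expected EA + EB − EA·EB, where EA and EB are the single-agent effects.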

[2] = tested on: BV-173 (Chronic Myelogenous Leukemia)
How it was run: as §1

[3] = tested on: EMC-BAC-2 (Non-Small Cell Lung Carcinoma)
How it was run: as §1

EW-13 (Ewing's Sarcoma) = tested on: EW-13 (Ewing's Sarcoma)
How it was run: as §1

GI-1 (Glioblastoma) = tested on: GI-1 (Glioblastoma)
How it was run: as §1

[4] = tested on: H-EMC-SS (Chondrosarcoma)
How it was run: as §1

[5] = tested on: HC-1 (Other Blood Carcinomas)
How it was run: as §1

[6] = tested on: HSC-2 (Oral Cavity Carcinoma)
How it was run: as §1

[7] = tested on: JHH-7 (Hepatocellular Carcinoma)
How it was run: as §1

[8] = tested on: KINGS-1 (Low Grade Glioma)
How it was run: as §1

[9] = tested on: KLE (Endometrial Carcinoma)
How it was run: as §1

[10] = tested on: KYSE-150 (Esophageal Squamous Cell Carcinoma)
How it was run: as §1

[11] = tested on: KYSE-50 (Esophageal Squamous Cell Carcinoma)
How it was run: as §1

[12] = tested on: LC4-1 (B-Lymphoblastic Leukemia)
How it was run: as §1

[13] = tested on: MFE-319 (Endometrial Carcinoma)
How it was run: as §1

NB7 (Neuroblastoma) = tested on: NB7 (Neuroblastoma)
How it was run: as §1

[14] = tested on: NCI-H2405 (Lung Adenocarcinoma)
How it was run: as §1

[15] = tested on: NCI-H513 (Other Solid Carcinomas)
How it was run: as §1

NH-12 (Neuroblastoma) = tested on: NH-12 (Neuroblastoma)
How it was run: as §1

[16] = tested on: PF-382 (T-Lymphoblastic Leukemia)
How it was run: as §1

Row | Compound | Bliss excess [1] | Bliss excess [2] | Bliss excess [3] | Bliss excess (EW-13 (Ewing's Sarcoma)) | Bliss excess (GI-1 (Glioblastoma)) | Bliss excess [4] | Bliss excess [5] | Bliss excess [6] | Bliss excess [7] | Bliss excess [8] | Bliss excess [9] | Bliss excess [10] | Bliss excess [11] | Bliss excess [12] | Bliss excess [13] | Bliss excess (NB7 (Neuroblastoma)) | Bliss excess [14] | Bliss excess [15] | Bliss excess (NH-12 (Neuroblastoma)) | Bliss excess [16]
1 | COc1cccc(OCCCN)c1-c1cc(Nc2cnc(C#N)cn2)n[nH]1 [Prexasertib] + CN(C)CCCOc1ccc(-c2ccc3ncc4c(c3c2)n(C2CCOCC2)c(=O)n4C)cn1 [AZD0156] (first compound max 1 µM, 7x7, partner max 1 µM) | 0.0014 | -0.0676 | 0.0756 | 0.0557 | 0.0084 | -0.0264 | -0.0134 | -0.0532 | -0.021 | -0.0927 | 0.002 | -0.0386 | 0.0138 | -0.0113 | -0.0129 | -0.0194 | -0.0037 | -0.0071 | 0.0111 | -0.0448
2 | COc1cccc(OCCCN)c1-c1cc(Nc2cnc(C#N)cn2)n[nH]1 [Prexasertib] + C[C@@H]1COCCN1C2=NC(=NC(=C2)C3(CC3)[S@](=N)(=O)C)C4=C5C=CNC5=NC=C4 [AZD6738] (first compound max 1 µM, 7x7, partner max 10 µM) | 0.0902 | -0.0473 | 0.0076 | 0.0572 | -0.0195 | -0.0013 | -0.0139 | 0.0649 | 0.0381 | 0.0426 | -0.0393 | -0.0265 | 0.0034 | -0.0033 | -0.0238 | -0.0018 | 0.0046 | -0.0104 | -0.0392 | -0.0558
3 | COc1cccc(OCCCN)c1-c1cc(Nc2cnc(C#N)cn2)n[nH]1 [Prexasertib] + Cc1cc2ncnn2cc1Nc1ncc2c(n1)n(C1CCOCC1)c(=O)n2C [AZD7648] (first compound max 1 µM, 7x7, partner max 10 µM) | 0.0598 | -0.0218 | -0.019 | -0.015 | -0.019 | -0.021 | 0.0069 | -0.0403 | -0.0143 | -0.0464 | 0.0213 | -0.0312 | -0.0296 | -0.0209 | -0.0064 | -0.0195 | -0.0386 | 0.0134 | -0.0133 | -0.0131
4 | COc1cccc(OCCCN)c1-c1cc(Nc2cnc(C#N)cn2)n[nH]1 [Prexasertib] + O=C(c1cc(Cc2n[nH]c(=O)c3ccccc23)ccc1F)N1CCN(C(=O)C2CC2)CC1 [Olaparib] (first compound max 1 µM, 7x7, partner max 10 µM) | 0.027 | 0.0169 | -0.0494 | -0.0562 | -0.0364 | -0.0445 | 0.0035 | -0.0206 | -0.0795 | -0.0979 | 0.0514 | 0.0491 | -0.117 | -0.0432 | -0.0891 | -0.113 | -0.0339 | -0.0162 | -0.0746 | -0.017
5 | COc1cc2c(cc1OCCCCCOc1cc3c(cc1OC)C(=O)N1C=C(C)C[C@H]1C=N3)N=C[C@@H]1CC(C)=CN1C2=O [SG3199] + O=C(c1cc(Cc2n[nH]c(=O)c3ccccc23)ccc1F)N1CCN(C(=O)C2CC2)CC1 [Olaparib] (first compound max 0.001 µM, 7x7, partner max 10 µM) | -0.0232 | 0.0535 | -0.0467 | -0.0415 | -0.0178 | -0.0812 | -0.0164 | -0.0751 | -0.0368 | -0.0434 | 0.0057 | -0.0131 | -0.0319 | -0.0371 | -0.041 | -0.0474 | -0.043 | -0.0325 | 0.0343 | 0.0069
6 | CCc1c2c(nc3ccc(O)cc13)-c1cc3c(c(=O)n1C2)COC(=O)[C@]3(O)CC [SN-38] + CN(C)CCCOc1ccc(-c2ccc3ncc4c(c3c2)n(C2CCOCC2)c(=O)n4C)cn1 [AZD0156] (first compound max 0.3 µM, 7x7, partner max 1 µM) | 0.0121 | -0.0256 | 0.0414 | -0.0589 | 0.0399 | -0.0092 | -0.0261 | 0.0085 | 0.0084 | -0.0185 | -0.0034 | 0.1 | -0.0053 | -0.0587 | -0.0108 | -0.0027 | -0.0082 | 0.0021 | -0.0954 | 0.0739
7 | C[C@@H](c1ccc2nccn2c1)n1nnc2ncc(-c3cnn(C)c3)nc21 [Savolitinib] + CC1(C)CCC(CN2CCN(c3ccc(C(=O)NS(=O)(=O)c4ccc(NCC5CCOCC5)c([N+](=O)[O-])c4)c(Oc4cnc5[nH]ccc5c4)c3)CC2)=C(c2ccc(Cl)cc2)C1 [Venetoclax] (first compound max 1 µM, 7x7, partner max 1 µM) | -0.0329 | 0.0064 | -0.0816 | -0.0796 | 0.0079 | -0.0186 | -0.0824 | 0.0064 | -0.0342 | -0.0566 | -0.111 | -0.0686 | -0.0636 | -0.0091 | -0.0764 | -0.0221 | -0.0793 | -0.0719 | -0.0158 | -0.0402
8 | C[C@@H](c1ccc2nccn2c1)n1nnc2ncc(-c3cnn(C)c3)nc21 [Savolitinib] + Cc1c2c(nn1C)CSCc1cc(n(C)n1)CSc1cc(c3ccccc3c1)OCCCc1c(C(=O)O)n(C)c3c-2c(Cl)ccc13 [AZD5991] (first compound max 1 µM, 7x7, partner max 1 µM) | -0.0466 | -0.0404 | -0.0767 | -0.0546 | 0.0227 | -0.0081 | -0.0199 | -0.0493 | -0.0404 | 0.0058 | -0.0822 | -0.0428 | -0.0382 | -0.0133 | -0.0751 | -0.0221 | -0.0547 | -0.0733 | -0.0375 | -0.0272
9 | Cn1cnc2c(F)c(Nc3ccc(Br)cc3Cl)c(C(=O)NOCCO)cc21 [Selumetinib] + C=CCn1c(=O)c2cnc(Nc3ccc(N4CCN(C)CC4)cc3)nc2n1-c1cccc(C(C)(C)O)n1 [AZD1775] (first compound max 10 µM, partner max 1 µM) | -0.0192 | -0.0026 | -0.0711 | -0.0742 | -0.0387 | -0.07 | -0.0702 | -0.0366 | -0.0198 | 0.0173 | -0.0117 | 0.0705 | -0.0209 | 0.0314 | -0.0715 | -0.0305 | 0.0147 | -0.0387 | -0.101 | 0.0137
10 | Cn1cnc2c(F)c(Nc3ccc(Br)cc3Cl)c(C(=O)NOCCO)cc21 [Selumetinib] + CC(C)n1c(=O)n(C)c2cnc3cc(F)c(-c4ccc(OCCCN5CCCCC5)nc4)cc3c21 [AZD1390] (first compound max 10 µM, 7x7, partner max 0.3 µM) | -0.0553 | -0.03 | 0.0079 | -0.0428 | -0.0165 | -0.0135 | -0.0327 | -0.0212 | -0.0517 | -0.0115 | -0.0057 | -0.0626 | -0.0046 | -0.0312 | -0.112 | -0.0326 | 0.0387 | -0.0769 | -0.064 | -0.0238
11 | Cn1cnc2c(F)c(Nc3ccc(Br)cc3Cl)c(C(=O)NOCCO)cc21 [Selumetinib] + CCN(CCO)CCCOc1ccc2c(Nc3cc(CC(=O)Nc4cccc(F)c4)[nH]n3)ncnc2c1 [AZD2811] (first compound max 10 µM, 7x7, partner max 1 µM) | 0.0505 | -0.0225 | 0.0094 | -0.0108 | -0.104 | -0.0233 | 0.0547 | -0.0278 | -0.0518 | -0.0447 | -0.0456 | 0.0295 | 0.005 | -0.0505 | -0.0736 | 0.0229 | -0.0127 | -0.0583 | -0.0485 | 0.111
12 | Cn1cnc2c(F)c(Nc3ccc(Br)cc3Cl)c(C(=O)NOCCO)cc21 [Selumetinib] + C[C@@H]1COCCN1C2=NC(=NC(=C2)C3(CC3)[S@](=N)(=O)C)C4=C5C=CNC5=NC=C4 [AZD6738] (first compound max 10 µM, 7x7, partner max 10 µM) | 0.0892 | -0.0149 | 0.0202 | -0.0267 | -0.0338 | -0.0405 | -0.0743 | -0.0553 | -0.0073 | 0.0148 | 0.01 | 0.0348 | 0.0013 | -0.0168 | 0.0065 | -0.0257 | 0.0971 | 0.0555 | 0.0315 | -0.0047
13 | CC(=O)Nc1cccc(-n2c(=O)n(C3CC3)c(=O)c3c(Nc4ccc(I)cc4F)n(C)c(=O)c(C)c32)c1 [Trametinib] + Cc1nc(-c2cn3c(n2)-c2ccc(-c4cnn(C(C)(C)C(N)=O)c4)cc2OCC3)n(C(C)C)n1 [Taselisib] (first compound max 1 µM, 7x7, partner max 10 µM) | 0.127 | 0.0965 | 0.0528 | -0.0107 | 0.0885 | 0.106 | 0.12 | 0.137 | 0.0427 | 0.151 | -0.0509 | 0.123 | 0.108 | 0.107 | 0.0681 | -0.0716 | 0.107 | 0.0563 | 0.011 | 0.234
14 | CC1(C)CCC(CN2CCN(c3ccc(C(=O)NS(=O)(=O)c4ccc(NCC5CCOCC5)c([N+](=O)[O-])c4)c(Oc4cnc5[nH]ccc5c4)c3)CC2)=C(c2ccc(Cl)cc2)C1 [Venetoclax] + C1CN(CCC1(C(=O)N[C@@H](CCO)C2=CC=C(C=C2)Cl)N)C3=NC=NC4=C3C=CN4 [Capivasertib] (first compound max 1 µM, 7x7, partner max 3 µM) | -0.0554 | -0.0613 | -0.116 | -0.0302 | -0.0234 | -0.0204 | 0.0217 | -0.0823 | -0.0266 | -0.0696 | -0.106 | 0.0107 | -0.0418 | 0.0227 | -0.0414 | -0.0301 | -0.0418 | -0.071 | -0.0289 | -0.0144
15 | CC1(C)CCC(CN2CCN(c3ccc(C(=O)NS(=O)(=O)c4ccc(NCC5CCOCC5)c([N+](=O)[O-])c4)c(Oc4cnc5[nH]ccc5c4)c3)CC2)=C(c2ccc(Cl)cc2)C1 [Venetoclax] + C=CCn1c(=O)c2cnc(Nc3ccc(N4CCN(C)CC4)cc3)nc2n1-c1cccc(C(C)(C)O)n1 [AZD1775] (first compound max 1 µM, partner max 1 µM) | -0.0662 | -0.0206 | -0.0562 | -0.0523 | -0.0127 | -0.0532 | 0.0665 | -0.0096 | 0.0071 | 0.0375 | -0.0043 | -0.0452 | -0.0395 | 0.0355 | -0.0129 | 0.0082 | -0.0756 | -0.0608 | 0.0148 | -0.0639
